Source: ChEMBL document CHEMBL3352669, “Tetrahydrobenzo[h][1,6]naphthyridine-6-chlorotacrine hybrids as a new family of anti-Alzheimer agents targeting β-amyloid, tau, and cholinesterase pathologies” (Eur J Med Chem, 2014)

Assays:
[1] = biological target: Amyloid-beta precursor protein (Homo sapiens) (UniProt P05067); assay: Inhibition of aggregation of amyloid beta-42 (unknown origin) expressed in Escherichia coli BL21 (DE3) assessed as amyloid fibril formation at 10 uM after 24 hrs by thioflavin S fluorescence method
Amyloid-beta precursor protein (Homo sapiens), sequence (P05067 whole entry): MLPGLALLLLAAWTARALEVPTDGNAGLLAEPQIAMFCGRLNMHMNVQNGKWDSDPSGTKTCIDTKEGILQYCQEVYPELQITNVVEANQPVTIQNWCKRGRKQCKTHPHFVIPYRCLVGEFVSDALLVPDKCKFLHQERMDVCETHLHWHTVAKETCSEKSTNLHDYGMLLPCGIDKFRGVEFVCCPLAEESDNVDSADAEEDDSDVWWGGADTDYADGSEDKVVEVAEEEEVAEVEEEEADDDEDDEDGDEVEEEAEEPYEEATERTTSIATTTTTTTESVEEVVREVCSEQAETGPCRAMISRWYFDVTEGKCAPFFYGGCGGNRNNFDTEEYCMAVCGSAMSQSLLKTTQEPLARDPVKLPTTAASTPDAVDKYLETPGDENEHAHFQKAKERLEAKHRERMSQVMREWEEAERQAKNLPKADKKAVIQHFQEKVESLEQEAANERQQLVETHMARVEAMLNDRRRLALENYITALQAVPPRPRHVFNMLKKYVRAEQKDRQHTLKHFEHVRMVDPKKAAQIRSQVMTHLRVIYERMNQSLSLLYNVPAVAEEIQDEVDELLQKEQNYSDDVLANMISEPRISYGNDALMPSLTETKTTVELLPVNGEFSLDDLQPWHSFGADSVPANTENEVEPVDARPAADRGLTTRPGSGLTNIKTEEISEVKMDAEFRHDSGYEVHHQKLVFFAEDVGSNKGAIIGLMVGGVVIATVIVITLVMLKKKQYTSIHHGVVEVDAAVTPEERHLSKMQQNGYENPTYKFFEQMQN

[2] = biological target: Microtubule-associated protein tau (Homo sapiens) (UniProt P10636); assay: Inhibition of aggregation of tau protein (unknown origin) expressed in Escherichia coli BL21 (DE3) assessed as amyloid fibril formation at 10 uM after 24 hrs by thioflavin S fluorescence method
Microtubule-associated protein tau (Homo sapiens), sequence (P10636 whole entry): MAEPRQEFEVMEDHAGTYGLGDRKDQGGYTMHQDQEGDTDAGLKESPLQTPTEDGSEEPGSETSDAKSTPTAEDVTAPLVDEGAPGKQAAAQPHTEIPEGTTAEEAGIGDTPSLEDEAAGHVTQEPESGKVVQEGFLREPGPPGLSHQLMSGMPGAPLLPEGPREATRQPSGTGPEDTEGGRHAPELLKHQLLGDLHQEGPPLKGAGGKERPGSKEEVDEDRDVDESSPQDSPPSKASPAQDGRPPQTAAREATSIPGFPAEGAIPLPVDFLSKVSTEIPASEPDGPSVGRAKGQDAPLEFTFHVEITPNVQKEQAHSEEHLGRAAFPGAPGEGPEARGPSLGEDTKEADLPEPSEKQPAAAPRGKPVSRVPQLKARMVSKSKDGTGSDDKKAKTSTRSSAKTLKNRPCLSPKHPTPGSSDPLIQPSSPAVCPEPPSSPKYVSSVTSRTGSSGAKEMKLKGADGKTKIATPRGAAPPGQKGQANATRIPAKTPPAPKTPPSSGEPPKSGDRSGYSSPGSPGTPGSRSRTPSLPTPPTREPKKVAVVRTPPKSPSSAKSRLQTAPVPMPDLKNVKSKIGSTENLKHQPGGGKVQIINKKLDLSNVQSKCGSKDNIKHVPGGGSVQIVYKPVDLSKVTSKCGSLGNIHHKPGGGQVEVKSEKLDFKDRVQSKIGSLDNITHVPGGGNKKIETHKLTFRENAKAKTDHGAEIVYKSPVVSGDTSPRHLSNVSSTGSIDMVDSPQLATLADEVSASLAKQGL

[3] = biological target: Acetylcholinesterase (Homo sapiens, UniProt P22303); assay: Inhibition of human recombinant AChE using acetylthiocholine iodide as substrate by spectrophotometric analysis
Acetylcholinesterase, sequence (P22303 whole entry): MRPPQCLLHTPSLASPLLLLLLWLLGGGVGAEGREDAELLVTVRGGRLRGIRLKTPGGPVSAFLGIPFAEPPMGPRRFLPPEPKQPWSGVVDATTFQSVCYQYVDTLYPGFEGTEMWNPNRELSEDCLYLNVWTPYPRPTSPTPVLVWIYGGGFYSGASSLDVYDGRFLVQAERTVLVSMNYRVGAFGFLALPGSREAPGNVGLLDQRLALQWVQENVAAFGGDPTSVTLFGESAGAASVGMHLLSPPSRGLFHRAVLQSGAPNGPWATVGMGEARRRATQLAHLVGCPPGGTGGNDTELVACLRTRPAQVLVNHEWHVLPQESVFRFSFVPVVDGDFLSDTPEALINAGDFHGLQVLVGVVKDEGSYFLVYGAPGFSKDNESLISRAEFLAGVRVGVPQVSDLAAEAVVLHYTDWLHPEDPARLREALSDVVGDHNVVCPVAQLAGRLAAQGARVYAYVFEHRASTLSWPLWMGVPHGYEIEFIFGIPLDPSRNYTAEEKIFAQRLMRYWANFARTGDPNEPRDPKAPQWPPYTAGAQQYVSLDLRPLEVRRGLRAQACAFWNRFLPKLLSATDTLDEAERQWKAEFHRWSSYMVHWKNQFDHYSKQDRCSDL

[4] = biological target: Cholinesterase (Homo sapiens, UniProt P06276); assay: Inhibition of human recombinant BChE using butyrylthiocholine iodide as substrate by spectrophotometric analysis
Cholinesterase, sequence (P06276 whole entry): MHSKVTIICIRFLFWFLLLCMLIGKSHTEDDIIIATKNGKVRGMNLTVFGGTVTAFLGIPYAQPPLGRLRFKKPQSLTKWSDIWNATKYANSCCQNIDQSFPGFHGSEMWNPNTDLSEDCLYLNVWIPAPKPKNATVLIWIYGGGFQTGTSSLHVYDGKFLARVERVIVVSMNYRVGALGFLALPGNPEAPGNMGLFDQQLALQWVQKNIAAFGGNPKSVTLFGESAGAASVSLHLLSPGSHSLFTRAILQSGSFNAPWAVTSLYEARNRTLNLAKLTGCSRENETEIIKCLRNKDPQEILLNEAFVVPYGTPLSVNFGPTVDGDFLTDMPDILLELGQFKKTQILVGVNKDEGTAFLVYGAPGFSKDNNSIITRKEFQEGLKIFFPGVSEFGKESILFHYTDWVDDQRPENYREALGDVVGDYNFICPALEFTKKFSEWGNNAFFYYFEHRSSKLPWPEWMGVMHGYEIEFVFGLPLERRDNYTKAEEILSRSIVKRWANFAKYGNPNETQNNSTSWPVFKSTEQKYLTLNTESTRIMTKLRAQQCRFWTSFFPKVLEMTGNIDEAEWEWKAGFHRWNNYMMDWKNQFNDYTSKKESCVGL

Structure (SMILES)	inhibition [1] [%]	inhibition [2] [%]	IC50 ([3]; read-out: IC50) [nM]	IC50 ([4]; read-out: IC50) [nM]	IC50 [3]	IC50 [4]
O=C(NCCCCCCCCNc1c2c(nc3cc(Cl)ccc13)CCCC2)c1ccc2nc(-c3ccc(Cl)cc3)c3c(c2c1)NCCC3	77.5	68.7				
O=C(NCCCCCCCCNc1c2c(nc3cc(Cl)ccc13)CCCC2)c1ccc2nc(-c3ccc(Cl)cc3)c3c(c2c1)OCCC3	54.6	37.8	19.3	223		
O=C(NCCCNc1c2c(nc3cc(Cl)ccc13)CCCC2)c1ccc2nc(-c3ccc(Cl)cc3)c3c(c2c1)NCCC3	52.5	40.7	0.006	120		
CCOC(=O)c1ccc2nc(-c3ccc(Cl)cc3)c3c(c2c1)OCCC3	41.8	27.9			Not Active	Not Active
Nc1c2c(nc3cc(Cl)ccc13)CCCC2	11	1.4				
O=C(NCCCCNc1c2c(nc3cc(Cl)ccc13)CCCC2)c1ccc2nc(-c3ccc(Cl)cc3)c3c(c2c1)NCCC3	55.8	58.9	14.2	205		
O=C(NCCCCCNc1c2c(nc3cc(Cl)ccc13)CCCC2)c1ccc2nc(-c3ccc(Cl)cc3)c3c(c2c1)NCCC3	54.3	57.7	14.2	337		
